Non-standard residues stand in square brackets, D forms with d. Residues, ends and D or L forms follow the SMILES beside them. Bip = N[C@@H](Cc1ccc(-c2ccccc2)cc1)C(=O)O
Columns and labels:
[1] = test system: clinical and antibiotic-resistant pathogens (panel of Table 3); format: cell-based; details: all six pathogens
Protocol: (§1) The antibiotic-resistant pathogens used in this study include the Gram-positive bacteria Enterococcus faecium V286-17 and Staphylococcus aureus USA300 LAC and the Gram-negative bacteria Klebsiella pneumoniae E406-17, Acinetobacter baumannii B28-16, Pseudomonas aeruginosa E411-17, and Escherichia coli E423-17. All bacteria were cultivated in tryptic soy broth (TSB) at 37 °C, 220 rpm.
(§2) The antibacterial activity of peptides was evaluated using a standard broth microdilution protocol with minor modifications. In brief, peptides were made at various concentrations, 10 μL per well in a 96-well polystyrene microplate. Logarithmic phase bacterial cultures (i.e., optical density (OD) at 600 nm ≈ 0.5) were diluted to 0.001 OD, and aliquots of 90 μL were added to each well. Untreated bacterial culture and medium were included as positive and negative controls, respectively. Plates were incubated at 37 °C overnight and read at 630 nm using a ChroMate Microplate Reader (Awareness Technology, Palm City, FL, USA). […] Our previously designed peptide 17BIPHE2 [32] was included as a positive control, and RI-10, a peptide without antibacterial activity in rich media, was utilized as a negative control.

[2] = test system: A. baumannii B28-16; format: cell-based, Acinetobacter baumannii
Protocol: as §1, §2

[3] = test system: S. aureus USA300 LAC preformed biofilms; details: S. aureus USA300 LAC and other clinical strains (USA200, USA400, Mu50); cited from earlier work
Protocol: Here, we compared the antibiofilm activity of SK-24 with that of GF-17, GI-20, and 17BIPHE2 against the 24 h preformed biofilms of S. aureus USA300. […] Only SK-24 a ...

[4] = test system: S. aureus USA300 LAC preformed biofilms; assay: Disruption of preformed biofilms (XTT); format: cell-based, Staphylococcus aureus
Protocol: The antibiofilm activities of peptides against the preformed biofilms of A. baumannii B28-16 and S. aureus USA300 LAC were evaluated as follows. Bacteria in the logarithmic growth phase were adjusted to a cell density of 10^5 colony forming unit (CFU)/mL. Two hundred microliter cells were seeded into each well of the 96-well plates. The plates were incubated at 37 °C to allow for the formation of biofilm for 24, 48, and 72 h, respectively. The planktonic cells were then removed, followed by a wash. The biofilms were then treated with 20 µL of 10× two-fold diluted peptides and 180 µL of fresh TSB media for 24 h at 37 °C. Cultures treated with water without peptide served as the positive control, and media treated with water was used as the negative control. To quantify the antibiofilm activity of the peptides, the XTT [2, 3-bis (2-methyloxy-4-nitro-5-sulfophenyl)-2H-tertazolium-5-carboxanilide] assay staining method was used to quantitate the live cells. Absorbance was read at 450 nm using a ChroMate microliter plate reader. The percentage biofilm growth for the peptide was plotted by assuming 100% biofilm growth in untreated bacterial control wells. Data were represented as mean ± standard deviation (SD). The data are statistically significant at p < 0.05. Plots were generated using GraphPad Prism v7 (GraphPad Software, San Diego, CA, USA).

[5] = test system: S. aureus USA300 LAC; assay: Membrane depolarization (DiBAC4(3)); format: cell-based, Staphylococcus aureus; details: peptide 8 µM; similar trends at 16 and 32 µM; DiBAC4(3) fluorescence
Protocol: The experiment was conducted as described. In brief, an overnight culture of S. aureus USA300 LAC was subcultured in a fresh TSB medium and grown to the exponential phase. Cells were spun using centrifugation and washed twice with PBS, and resuspended in twice the volume of PBS containing 25 mM glucose and incubated at 37 °C for 15 min. For membrane depolarization measurements, 500 nM (final concentration) of the dye DiBAC4 (3) (bis-(1,3- dibutylbarbituric acid) trimethine oxonol) (AnaSpec, San Jose, CA, USA) was added and vortexed gently. Aliquots of 90 μL of the energized bacteria solution were loaded to the wells, and the plate was fed into a FLUOstar Omega microplate reader. Fluorescence was read for 20 min at excitation and emission wavelengths of 485 and 520 nm, respectively, to get dye normalization. Then 10 μL of diluted peptide solutions were added and gently mixed. Fluorescence readings were recorded for 40 min, where Triton X-100 (0.1%) was used as a positive control.

[6] = test system: Human red blood cells; assay: Hemolytic assay; format: cell-based; details: red cells of human, 1 h
Protocol: Human red blood cells (hRBCs, the UNMC Blood Bank) were washed three to five times with saline (Fisher Scientific, Waltham, MA, USA) at 800 g for 10 min each time, until the supernatant was clear. The supernatant was discarded, and hRBCs were suspended in saline at a final density of 2%. Ninety microliters of hRBC suspensions were added to each well of 96-well plates containing 10 µL of 10× serially diluted peptides. After incubation at 37 °C for 1 h, the plates were centrifuged at 1500 rpm for 5 min. About 80 µL of the supernatant was carefully pipetted to a new 96-well microplate and read at 545 nm to measure the amount of hemoglobin released. The positive control was 1% Triton X-100, and the negative control was saline. The percentage of hRBC lysis was calculated based on the hemoglobin released.

CC(C)C[C@H](NC(=O)[C@H](CC(N)=O)NC(=O)[C@H](CCCNC(=N)N)NC(=O)[C@@H](CC(C)C)NC(=O)[C@H](Cc1ccc(-c2ccccc2)cc1)NC(=O)[C@H](CC(=O)O)NC(=O)[C@H](CCCCN)NC(=O)[C@@H](CC(C)C)NC(=O)[C@H](CCCNC(=N)N)NC(=O)[C@H](CCC(N)=O)NC(=O)[C@@H](NC(=O)[C@@H](CC(C)C)NC(=O)[C@H](CCCNC(=N)N)NC(=O)[C@H](CCCCN)NC(=O)[C@H](Cc1ccc(-c2ccccc2)cc1)NC(=O)CN)C(C)C)C(=O)N[C@H](C(N)=O)C(C)C [Peptide 17BIPHE2] (H-G[Bip]KR[dL]VQR[dL]KD[Bip][dL]RNLV-NH2; N-terminus assumed)
MIC range over the pathogens of Table 3 [1]: 2 to 8 µM | MIC [2]: 4 to 8 µM | Disruption of 24 h preformed biofilms (words, found previously) [3]: highly effective | Antibiofilm effect on 24 h preformed biofilms ([4]; 24 h preformed biofilms of S. aureus USA300, XTT): antibiofilm effect in a dose-dependent manner | Staphylococcal biofilm remaining (reduced to) ([4]; 24 h preformed biofilms, peptide 32 μM, relative to untreated control = 100%): ~ 25% | Membrane depolarization ability (order, words) [5]: GI-20 > 17BIPHE2 > GF-17~SK-24 > LL-37 | HC50 (50% hemolytic concentration) [6]: ~ 200 µM
